Data published in patent publication US20210235699A1, “Adjuvant Compositions Comprising a Tetramethylguanidine and a 4-Isothiazolin-3-One” (Lonza, LLC, priority 2018, published 2021).
“Also recorded” adds a separate entry of the source. Marks after values point to notes of the source that are not given here.

Experiments:
[1] = test system: fungal test inoculum: Aspergillus niger, Penicillium funiculosum, Candida albicans; assay: Fungal challenge test (ASTM D2574-97, modified) in standard water based interior paint; type: cell-based; design: key to Streak plate rank, 2nd inoculation 72 h / Streak plate rank, 1st inoculation 72 h / Streak plate rank, 1st inoculation 24 h / Streak plate rank, 2nd inoculation 24 h / Streak plate rank, 3rd inoculation 24 h: 0 = no growth; 1 = 1-5 Colony Forming Unit (cfu); 2 = 6-15 cfu; 3 = 16-30 cfu; 4 = 31-45 cfu; 5 = greater than 45 cfu; 5c = Confluent Growth; settings: for Dilution plate count, 3rd inoculation 72 h / Streak plate rank, 3rd inoculation 24 h: inoculum 0.50%; for Streak plate rank, 1st inoculation 24 h / Streak plate rank, 1st inoculation 72 h: inoculum 2%
Procedure: (§1) The following bacterial and fungal challenge tests were performed to ascertain whether low concentrations of 4-isothiazolin-3-one biocidal active compounds, pyrithione, coumarin or guanidine adjuvant are sufficient to prevent microbial contamination of final products when deliberately inoculated with spoilage microbes.
(§2) The tests were performed according to ASTM standard D2574-97 (Standard Test Method for Resistance of Emulsion Paints in the Container to Attack by Microorganisms, ASTM International, West Conshohocken, Pa.), with higher inoculation volumes and frequency. A standard water based interior paint was used as the test substrate. Sample sizes of 20 g test substrate were used and the test samples were prepared in a sterile 30 mL square Nalgene bottle.
Fungal lawns were grown on Potato Dextrose Agar (PDA) or Sabouraud Dextrose Agar (SAB). Individual fungal spore suspensions were harvested by adding 10 mL of sterile 0.05% Triton X to fungal lawns. The lawns were then gently agitated by rubbing a sterile swab on the lawn, being careful not to puncture the agar. The liquid was then aseptically transferred to a sterile bottle containing sterile glass beads. The top of the bottle was closed and the bottle shaken vigorously to break up any chunks in the suspension. The shaken spore suspension was decanted through sterile fibers into another sterile bottle. The decanted spore suspension was counted using a hemocytometer. Once the spore counts were determined, each suspension was diluted in order to obtain 10^6 spore/mL. Each diluted fungal suspension was poured into a sterile container.
(§3) The following microorganisms were used for inoculation of the tested samples:
For the bacterial challenge testing, each sample was inoculated with a combined bacterial test inoculum volume equivalent to 10% of the total initial sample volume for the initial inoculation, 5% of the total initial sample volume for the second inoculation and 2.5% of the total initial sample volume for the third inoculation. […] Samples were inoculated every 96 h.
(§4) Concentrations of biocidal active compounds and adjuvants refer to the final concentration in the test samples prior to the first inoculation.
(§5) The efficacy of the added agent in each sample was monitored by means of a streak plate test after 24 hours (all inoculations) and 72 hours of inoculation (first and second inoculation). At 72 hours of the third inoculation performed, a dilution plate count was performed in order to obtain a quantitative measurement of contamination (cfu/mL). A count of less than 10 colony forming units per mL ([…]) is considered to show no measurable contamination. For the streak plate tests, bacterial samples were streaked on Tryptic Soy Agar (TSA) and incubated for 48 hours at 30° C. before reading. Fungal samples were streaked on Potato Dextrose Agar (PDA) and incubated for 5 days at 25° C. before reading.
(§6) The streak plates were ranked from 0-5c according to the degree of microbial growth:
(§7) The challenge tests were performed as described above.

[2] = test system: combined bacterial test inoculum: Acinetobacter calcoaceticus, Escherichia coli, Pseudomonas aeruginosa, Enterobacter cloacae; assay: Bacterial challenge test (ASTM D2574-97, modified) in standard water based interior paint; type: cell-based; design: key to Streak plate rank, 1st inoculation 24 h / Streak plate rank, 1st inoculation 72 h / Streak plate rank, 2nd inoculation 72 h / Streak plate rank, 3rd inoculation 24 h: 0 = no growth; 1 = 1-5 Colony Forming Unit (cfu); 2 = 6-15 cfu; 3 = 16-30 cfu; 4 = 31-45 cfu; 5 = greater than 45 cfu; 5c = Confluent Growth; settings: for Dilution plate count, 3rd inoculation 72 h / Streak plate rank, 3rd inoculation 24 h: inoculum 2.50%; for Streak plate rank, 2nd inoculation 72 h: inoculum 5%; for Streak plate rank, 1st inoculation 24 h / Streak plate rank, 1st inoculation 72 h: inoculum 10%
Procedure: as §1, §2
The bacteria were grown on pH 5, 7, or 9 Trypticase Soy Agar (TSA) lawns. The bacteria were grown individually on TSA and harvested by using sterile buffered water. The bacterial lawns were washed off with 30 mL of sterile water and an equal volume of each individual cell suspension was withdrawn from each serum bottle to make a combined cell suspension. Combined bacterial suspension were about 10^7 cfu/mL, which provides about 10^6 cfu/mL in the sample.
as §3
For the bacterial challenge testing, each sample was inoculated with a combined bacterial test inoculum volume equivalent to 10% of the total initial sample volume for the initial inoculation, 5% of the total initial sample volume for the second inoculation and 2.5% of the total initial sample volume for the third inoculation. Inoculum volumes for the fungal challenge tests were 2%, 1% and 0.5% of the total initial sample volume, respectively. Samples were inoculated every 96 h.
as §4, §5, §6, §7

[3] = test system: bacterial test inoculum (Acinetobacter calcoaceticus, Escherichia coli, Pseudomonas aeruginosa, Enterobacter cloacae); assay: Quick kill testing in pre-contaminated standard interior paint (dilution-plate counts); type: cell-based; settings: for Dilution-plate count T4 / Dilution-plate count T8 / Dilution-plate count T24: Table 9, 30° C.; for Dilution-plate count T4: 4 hours after treatment; for Dilution-plate count T8: 8 hours after treatment; for Dilution-plate count T24: 24 hours after treatment
Procedure: An additional test was performed to analyze how quickly the tested biocidal compositions will recover a sample from microbial spoilage. For each sample, 20 g of a pre-contaminated standard interior paint formulation serving as a test substrate was weighed into a sterile container. All samples were contaminated with the bacterial test inoculum described above (10% of the of the total initial sample volume).
A dilution-plate count was performed on the untreated sample (0 hour time point) and a biocidal composition added aseptically to each sample. Subsequent to this treatment, further dilution-plate counts were performed at fixed time intervals (time points are given in hours) on each sample, including an untreated negative control. All samples were incubated at 30° C.±2° C.
Concentrations in ppm refer to final concentrations of the biocidal compositions in the test samples. The relative amounts of active compounds and adjuvant in the tested biocidal compositions were as indicated below: […]

[4] = test system: bacteria, fungi and yeast; settings: cited from earlier work
[5] = neutral pH; cited from earlier work

## CN(C)C(=N)N(C)C [TMG, 1,1,3,3-tetramethylguanidine]
[1]; 750 ppm
  Dilution plate count, 3rd inoculation 72 h: <10 cfu/mL
  Streak plate rank, 3rd inoculation 24 h: 3 (3 = 16-30 cfu)
  Streak plate rank, 1st inoculation 24 h: 4 (4 = 31-45 cfu)
  Streak plate rank, 1st inoculation 72 h: 0
[1]; 750 ppm, inoculum added was 2%
  Streak plate rank, 2nd inoculation 72 h: 1** (1 = 1-5 Colony Forming Unit (cfu))
[1]; 1000 ppm
  Dilution plate count, 3rd inoculation 72 h: <10 cfu/mL
  Streak plate rank, 3rd inoculation 24 h: 3 (3 = 16-30 cfu)
  Streak plate rank, 1st inoculation 24 h: 4 (4 = 31-45 cfu)
  Streak plate rank, 1st inoculation 72 h: 0
[1]; 1000 ppm, inoculum added was 2%
  Streak plate rank, 2nd inoculation 72 h: 0**
[1]; 1250 ppm
  Dilution plate count, 3rd inoculation 72 h: <10 cfu/mL
  Streak plate rank, 3rd inoculation 24 h: 3 (3 = 16-30 cfu)
  Streak plate rank, 1st inoculation 24 h: 2 (2 = 6-15 cfu)
  Streak plate rank, 1st inoculation 72 h: 0
[1]; 1250 ppm, inoculum added was 2%
  Streak plate rank, 2nd inoculation 72 h: 0**
[1]; 1500 ppm
  Dilution plate count, 3rd inoculation 72 h: <10 cfu/mL
  Streak plate rank, 3rd inoculation 24 h: 3 (3 = 16-30 cfu)
  Streak plate rank, 1st inoculation 24 h: 2 (2 = 6-15 cfu)
  Streak plate rank, 1st inoculation 72 h: 0
[1]; 1500 ppm, inoculum added was 2%
  Streak plate rank, 2nd inoculation 72 h: 0**
[1]; in combination with BIT and BBIT, Tables 4 and 6
  effect of guanidine on fungicidal activity of 4-isothiazolin-3-ones (in words): enhancing effect; also recorded: significantly improved
[2]; 750 ppm
  Dilution plate count, 3rd inoculation 72 h: 1.7 × 10^5 cfu/mL
  Streak plate rank, 3rd inoculation 24 h: 5c
  Streak plate rank, 2nd inoculation 72 h: 5c
  Streak plate rank, 1st inoculation 24 h: 5 (5 = greater than 45 cfu)
  Streak plate rank, 1st inoculation 72 h: 5c
[2]; 1000 ppm
  Dilution plate count, 3rd inoculation 72 h: 2.1 × 10^6 cfu/mL
  Streak plate rank, 3rd inoculation 24 h: 5c
  Streak plate rank, 2nd inoculation 72 h: 5c
  Streak plate rank, 1st inoculation 24 h: 5 (5 = greater than 45 cfu)
  Streak plate rank, 1st inoculation 72 h: 5 (5 = greater than 45 cfu)
[2]; 1250 ppm
  Dilution plate count, 3rd inoculation 72 h: 6.6 × 10^6 cfu/mL
  Streak plate rank, 3rd inoculation 24 h: 5c
  Streak plate rank, 2nd inoculation 72 h: 5c
  Streak plate rank, 1st inoculation 24 h: 0
  Streak plate rank, 1st inoculation 72 h: 0
[2]; 1500 ppm
  Dilution plate count, 3rd inoculation 72 h: <10 cfu/mL
  Streak plate rank, 3rd inoculation 24 h: 3 (3 = 16-30 cfu)
  Streak plate rank, 2nd inoculation 72 h: 0
  Streak plate rank, 1st inoculation 24 h: 0
  Streak plate rank, 1st inoculation 72 h: 0
[2]; in combination with BIT and BBIT, Tables 3 and 5
  effect of guanidine on bactericidal activity of 4-isothiazolin-3-ones (in words): significantly improved
[3]; 940 ppm
  Dilution-plate count T4: 1.19 × 10^7
  Dilution-plate count T8: 1.02 × 10^7
  Dilution-plate count T24: 4.0 × 10^6
[3]; Tables 8 and 9
  quick kill performance (in words): markedly accelerated the recovery

## O=c1[nH]sc2ccccc12 [BIT, 1,2-benzisothiazolin-3-one]
[4]
  amounts required for a reliable and quick biocidal activity: up to 500 ppm
[1]; 50 ppm
  Dilution plate count, 3rd inoculation 72 h: 2.0 × 10^2 cfu/mL
  Streak plate rank, 3rd inoculation 24 h: 5 (5 = greater than 45 cfu)
  Streak plate rank, 1st inoculation 24 h: 5 (5 = greater than 45 cfu)
  Streak plate rank, 1st inoculation 72 h: 2 (2 = 6-15 cfu)
[1]; 50 ppm, inoculum 1%
  Streak plate rank, 2nd inoculation 72 h: 1 (1 = 1-5 Colony Forming Unit (cfu))
[2]; 50 ppm
  Dilution plate count, 3rd inoculation 72 h: 4.2 × 10^7 cfu/mL
  Streak plate rank, 3rd inoculation 24 h: 5 (5 = greater than 45 cfu)
  Streak plate rank, 2nd inoculation 72 h: 5 (5 = greater than 45 cfu)
  Streak plate rank, 1st inoculation 24 h: 5 (5 = greater than 45 cfu)
  Streak plate rank, 1st inoculation 72 h: 4 (4 = 31-45 cfu)
[3]; 50 ppm
  Dilution-plate count T4: 1.15 × 10^7
  Dilution-plate count T8: 3.4 × 10^6
  Dilution-plate count T24: 9.4 × 10^5

## Zinc pyrithione
[5]
  solubility in water: 8 ppm
